Experimental data taken from ChEMBL document CHEMBL1821712, “Antimalarial β-carbolines from the New Zealand ascidian Pseudodistoma opacum” (J Nat Prod, 2011).

Key:
L6 = assay: Cytotoxicity against rat L6 cells incubated for 72 hrs by Alamar Blue staining based fluorometric assay; assay type: cell-based; conditions: L6, 72 h
[1] = test system: Trypanosoma brucei rhodesiense; assay: Antiparasitic activity against Trypanosoma brucei rhodesiense STIB 900 trypomastigotes stage forms incubated for 72 hrs by Alamar blue staining based fluorometric assay; assay type: functional, organism-based; conditions: STIB 900, 72 h
Trypanosoma cruzi = assay: Antiparasitic activity against Trypanosoma cruzi Tulahuen C4 amastigotes stage forms incubated for 96 hrs by beta-galactosidase reporter gene assay; assay type: functional, organism-based; conditions: Tulahuen C4, 96 h
Leishmania donovani = assay: Antiparasitic activity against Leishmania donovani MHOM/ET/67/L82 amastigotes/axenic stage forms incubated for 72 hrs by Alamar Blue staining based fluorometric assay; assay type: functional, organism-based; conditions: MHOM/ET/67/L82, 72 h
Plasmodium falciparum [2] = assay: Antiparasitic activity against Plasmodium falciparum K1 IEF stage forms incubated for 72 hrs by Alamar Blue staining based fluorometric assay; conditions: K1, 72 h
Plasmodium falciparum [3] = assay: Antiparasitic activity against chloroquine-resistant Plasmodium falciparum Dd2; assay type: functional, organism-based
Plasmodium falciparum [4] = assay: Antiparasitic activity against chloroquine-sensitive Plasmodium falciparum 3D7; assay type: functional, organism-based

Compound | IC50 (L6) [µM] | IC50 [1] [µM] | IC50 (Trypanosoma cruzi) [µM] | IC50 (Leishmania donovani) [µM] | IC50 (Plasmodium falciparum [2]) [µM] | IC50 (Plasmodium falciparum [3]) [µM] | IC50 (Plasmodium falciparum [4]) [µM]
COc1cc([C@@H]2c3cc4c(cc3[C@H](O)[C@H]3COC(=O)[C@H]23)OCO4)cc(OC)c1OC [PODOFILOX] | 0.019 |  |  |  |  |  | 
O=C1c2ccccc2C(=O)N1CCCC1NCCc2c1[nH]c1ccccc21 (stereo not given) | 110 | 17 | 51 | 150 | 14 |  | 
N=C(N)NCCCCc1nccc2c3ccc(Br)cc3n(O)c12 [OPACALINE B] | 120 | 27 | 107 | 101 | 4.5 |  | 
O=C(Cn1ccnc1[N+](=O)[O-])NCc1ccccc1 [BENZNIDAZOLE] |  |  | 1.8 |  |  |  | 
N=C(N)NCCCc1nccc2c1[nH]c1ccccc12 | 101 | 7.7 | 130 | > 200 | 7.8 |  | 
N=C(N)NCCCCc1nccc2c1[nH]c1ccccc12 | 84 | 12 | 110 | > 200 | 6.4 |  | 
CCCCCCCCCCCCCCCCOP(=O)([O-])OCC[N+](C)(C)C [MILTEFOSINE] |  |  |  | 0.53 |  |  | 
N=C(N)NCCC[C@H]1NCCc2c1[nH]c1cc(Br)ccc21 |  |  |  |  |  | 5.4 | 3.5
N=C(N)NCCCCc1nccc2c1[nH]c1cc(Br)ccc12 [OPACALINE A] | 79 | 30 | 86 | 130 | 2.5 |  | 
